According to publication PMC7946228, “Discovery of novel candidates for anti-liposarcoma therapies by medium-scale high-throughput drug screening” (PLoS ONE, 2021):
pIC50: −log10 of the molar value. Where two headings read alike, the source gives them in different places.

Experiments:
[1] = test system: FU-DDLS-1 liposarcoma cell line; assay: CellTiter-Glo viability, GR50, 72h; type: cell-based, human; conditions: FU-DDL S-1, 72h; read-out: Half maximum effective concentration corrected for cell growth (GR50)
Experimental: (§1) Cell viability was measured using the CellTiter-Glo Luminescent Cell Viability Assay (Promega, Wisconsin, United States). For each experiment the same cell numbers were seeded as for the proliferation experiments. Seven drug concentrations were used, starting from 100μM with 10-fold dilutions and also a vehicle control appropriate for each drug (DMSO or ethanol). After 72h of drug or vehicle control treatment levels of ATP were measured with CellTiter-Glo. The data from six to nine biological replicates, each with three technical replicates were collected. A nonlinear regression model with different four-parameter log-logistic function was used for modelling of the drug dose-response using ‘GRmetrics’ R package version 1.8.1 [26]. The calculated GR50 metric is equivalent to the IC50 metric but takes into account the growth rate of cells. Therefore, it estimates better the effect of the compound on cell viability and allows for comparison between different cell lines with different growth rates.

[2] = test system: GOT3 liposarcoma cell line; assay: CellTiter-Glo viability, GR50, 72h; type: cell-based, human; conditions: GOT3, 72h; read-out: Half maximum effective concentration corrected for cell growth (GR50)
Experimental: as §1

[3] = test system: LPS141 liposarcoma cell line; assay: CellTiter-Glo viability, GR50, 72h; type: cell-based, human; conditions: LPS 141, 72h; read-out: Half maximum effective concentration corrected for cell growth (GR50)
Experimental: as §1

[4] = test system: LPS510 liposarcoma cell line; assay: CellTiter-Glo viability, GR50, 72h; type: cell-based, human; conditions: LPS 510, 72h; read-out: Half maximum effective concentration corrected for cell growth (GR50)
Experimental: as §1

[5] = test system: LPS853 liposarcoma cell line; assay: CellTiter-Glo viability, GR50, 72h; type: cell-based, human; conditions: LPS 853, 72h; read-out: Half maximum effective concentration corrected for cell growth (GR50)
Experimental: as §1

[6] = test system: LS2 liposarcoma cell line; assay: CellTiter-Glo viability, GR50, 72h; type: cell-based, human; conditions: LS2, 72h; read-out: Half maximum effective concentration corrected for cell growth (GR50)
Experimental: as §1

[7] = test system: LiSa-2 liposarcoma cell line; assay: CellTiter-Glo viability, GR50, 72h; type: cell-based, human; conditions: LiSa-2, 72h; read-out: Half maximum effective concentration corrected for cell growth (GR50)
Experimental: as §1

[8] = test system: NRH-LS1 liposarcoma cell line; assay: CellTiter-Glo viability, GR50, 72h; type: cell-based, human; conditions: NRH-LS1, 72h; read-out: Half maximum effective concentration corrected for cell growth (GR50)
Experimental: as §1

[9] = test system: SA-4 liposarcoma cell line; assay: CellTiter-Glo viability, GR50, 72h; type: cell-based, human; conditions: SA-4, 72h; read-out: Half maximum effective concentration corrected for cell growth (GR50)
Experimental: as §1

[10] = test system: SW872 liposarcoma cell line; assay: CellTiter-Glo viability, GR50, 72h; type: cell-based, human; conditions: SW 872, 72h; read-out: Half maximum effective concentration corrected for cell growth (GR50)
Experimental: as §1

[11] = test system: T1000 liposarcoma cell line; assay: CellTiter-Glo viability, GR50, 72h; type: cell-based, human; conditions: T1000, 72h; read-out: Half maximum effective concentration corrected for cell growth (GR50)
Experimental: as §1

[12] = test system: T449 liposarcoma cell line; assay: CellTiter-Glo viability, GR50, 72h; type: cell-based, human; conditions: T449, 72h; read-out: Half maximum effective concentration corrected for cell growth (GR50)
Experimental: as §1

[13] = test system: T778 liposarcoma cell line; assay: CellTiter-Glo viability, GR50, 72h; type: cell-based, human; conditions: T778, 72h; read-out: Half maximum effective concentration corrected for cell growth (GR50)
Experimental: as §1

liposarcoma cell lines [14] = assay: IncuCyte cell proliferation assay (growth reducing/arresting concentration); type: cell-based, human; conditions: complete growth arrest between 96 and 120h
Experimental: The cellular proliferation rate was measured using the IncuCyte ZOOM live-cell imaging system (Essen Bioscience, Birmingham, UK) with the corresponding software application (version 2013BRev1). First the growth rate for each cell line was established to estimate the seeding numbers of cells corresponding to 15-30% of confluence at the start of the experiment and maximum 70% after 72h. The drug treatment was initiated approximately 18h after seeding. The proliferation rate was measured as cell confluence over time through the acquisition of photographs under phase contrast every third hour for the entire duration of the drug treatment. During the drug treatment, media were not changed, and cells were not split. The growth reducing drug concentration was defined as lowest drug concentration leading to significant decrease of cellular growth between 40 and 72h after start of treatment. To determine that concentration, plots were generated using IncuCyte software and differences in growth between 40 and 72h were calculated using least-square means with the '[…] package version 1.4.3 [25]. Growth arresting concentrations were defined as minimal drug concentration under which cell confluence between 96 and 120h increases by less than 3%. Though growth arrest occurred much earlier, these time points ensured that the growth arrest is a stable phenomenon. These growth arresting concentrations were used for drug withdrawal, apoptosis and cell cycle experiments. All the data were verified with the plots. The presented values correspond to median values from two ([…], all compounds) to five (all cell lines, triptolide) biological replicates.

liposarcoma cell lines [15] = assay: TUNEL apoptosis assay by flow cytometry; type: cell-based, human; conditions: growth arresting concentration, 17-72h, majority of cell lines
Experimental: (§2) Cells were treated with drugs at the concentrations corresponding to previously established growth arresting concentrations and collected between 17 and 72h. Time of collection was individual for every drug/cell line combination; cells were collected after the beginning of complete growth inhibition (based on the growth curves data) but only when first signs of morphological change or cell death were visible (estimated microscopically approximately every 2h). After methanol fixation, cells were barcoded with different combinations of Pacific Blue/Pacific Orange dyes (Thermo Fisher Scientific) for different drug treatments. After mixing, cells were incubated in the TUNEL reaction mix for 1h at 37°C, according to the manufacturer’s instructions (Roche, Germany), stained with Streptavidin-Cy5 conjugated Ab and digested with RNAse. Cells were counter-stained with propidium iodide and analyzed using LSR II Flow Cytometer (BD Biosciences, NJ, USA. The data were processed with FlowJo Version 7.6.5 (Tree Star, Ashland, USA). The gating strategy is presented in Fig 3A. Cy-5 positive cells (as compared to control sample) were calculated as apoptotic. Cell cycles of non-apoptotic cells were analyzed using the built in FlowJo Cell Cycle Analysis module. Three independent biological replicates were done for each cell line/drug combination with exception of FU-DDLS-1 and T1000 –for which we only had two replicates available.

liposarcoma cell lines [16] = assay: Cell cycle analysis of non-apoptotic cells (propidium iodide); type: cell-based, human; conditions: growth arresting concentration, non-apoptotic fraction
Experimental: as §2

liposarcoma cell lines [17] = assay: Drug withdrawal, reversibility of growth arrest; type: cell-based, human; conditions: 120h treatment at growth arresting concentration, then 72h without drug; except T778 with MLN9708
Experimental: The cellular proliferation rate was measured using the IncuCyte ZOOM live-cell imaging system (Essen Bioscience, Birmingham, UK) with the corresponding software application (version 2013BRev1). First the growth rate for each cell line was established to estimate the seeding numbers of cells corresponding to 15–30% of confluence at the start of the experiment and maximum 70% after 72h. The drug treatment was initiated approximately 18h after seeding. The proliferation rate was measured as cell confluence over time through the acquisition of photographs under phase contrast every third hour for the entire duration of the drug treatment. During the drug treatment, media were not changed, and cells were not split. The growth reducing drug concentration was defined as lowest drug concentration leading to significant decrease of cellular growth between 40 and 72h after start of treatment. To determine that concentration, plots were generated using IncuCyte software and differences in growth between 40 and 72h were calculated using least-square means with the ‘emmeans’ R package version 1.4.3 [25]. Growth arresting concentrations were defined as minimal drug concentration under which cell confluence between 96 and 120h increases by less than 3%. Though growth arrest occurred much earlier, these time points ensured that the growth arrest is a stable phenomenon. These growth arresting concentrations were used for drug withdrawal, apoptosis and cell cycle experiments. All the data were verified with the plots. The presented values correspond to median values from two (T449, all compounds) to five (all cell lines, triptolide) biological replicates.
An important prerequisite for clinical implementation of these compounds as treatment for liposarcoma is irreversibility of the induced growth inhibition. We thus assessed if the drugs were only transiently cytostatic, which is especially important in case of the compounds that seem to work mainly via cell cycle arrest (APO866, GSK2126458). Cells were treated with the compounds at growth arresting concentrations for 120h after which the compounds were removed and cell numbers were monitored for another 72h. […] To irreversibly arrest cell proliferation GSK2126458 had to be used at 10x higher concentrations (100x for GOT3) (S5 Fig). Those concentrations are above physiological ranges (see Table 2), and these effects should be accounted for assessing use of GSK2126458 in clinic.

[18] = cited from earlier work
[19] = intravenous, phase I, maximum tolerated dose

Structure (SMILES): CC(C)C[C@H](NC(=O)CNC(=O)c1cc(Cl)ccc1Cl)B1OC(=O)C(CC(=O)O)(CC(=O)O)O1 [MLN9708]
- pIC50 [1]: 6.20
- pIC50 [2]: 7.00
- pIC50 [3]: 6.28
- pIC50 [4]: 6.08
- pIC50 [5]: 7.02
- pIC50 [6]: 6.20
- pIC50 [7]: 6.13
- pIC50 [8]: 6.13
- pIC50 [9]: 6.49
- pIC50 [10]: 6.26
- pIC50 [11]: 6.33
- pIC50 [12]: 5.99
- pIC50 [13]: 6.11
- concentration required to completely arrest more than half of the cell lines (liposarcoma cell lines [14]): at least 1 μM
- apoptosis (increase in % of apoptotic cells) (liposarcoma cell lines [15]): above 5%
- cell cycle phase in which cells are blocked (liposarcoma cell lines [16]): less specific arrest
- reversibility of growth inhibition after drug removal (liposarcoma cell lines [17]): irreversibly inhibited growth of all tested cell lines
- Cmax ([18]; human, in vivo): 30 to 300 nM
- Cmax [18, 19]: ≤ 1400 nM
- Css [18, 19]: 30 to 300 nM
